Laboratory results published in patent publication US20240132511A1, “TREATMENTS OF PRADER-WILLI SYNDROME” (Neuren Pharmaceuticals Limited, priority 2021, published 2024).

Assays:
Magel2-null mice [1] = assay: Elevated Plus Maze (time in open arms); type: in vivo, mouse; design: key: **** = p < 0.0001; ns = not significant
Excerpt: (§1) The mouse locus 7qB4/B5 (syntenic with the Prader-Willi region at chromosome position 15q11-q13 in humans) encompasses the cluster of paternally-expressed imprinted genes Magel2, Ndn, Mkrn3, and Peg12. As maternal imprinting silences the Magel2 allele, only the paternally inherited Magel2 allele is expressed. Heterozygous females were bred with wild-type males (or C57BL/6J inbred males) to maintain the line; as the resulting offspring will have no abnormal phenotype. To obtain “Magel2-null” offspring (both maternal and paternal Magel2 alleles are non-functional), wild-type females are bred with heterozygous males; allowing maternal transmission of the imprinted/silenced wild-type allele and paternal transmission of the Magel2-lacZ (null) allele. Magel2-null mice have disrupted circadian rhythm and metabolism, total activity, food consumption, weight before weaning, and fertility in both sexes, as well as increased adiposity after weaning and altered behavior. Magel2-null mice on this C57BL/6J genetic background recapitulate Prader-Willi syndrome. Because the genetic mutation in the Magel2-null animals is the same as the mutation in human beings, studies in Magel2-null mice are reasonably predictive of effects of compounds in human beings.
(§2) In vivo experiments were conducted in C57BL/6-Magel2tm1Stw/J (Magel2-null) mice at age P60 and their wild-type littermates during the light phase (littermates that were wild-type for Magel2 were used as controls). Ten mice per treatment group were used for studies 1 and 2, and six mice per group for study 3. In study 1: C57BL/6-Magel2tm1Stw/J (Magel2-null) mice were assessed on behavioral assays. Study 2 tested the efficacy of cG-2-AllylP in treating obesity and insulin levels in Magel2-null mice. Study 3 tested the IGF-1 level in Magel2-null mice. Because human beings have the same genetic abnormality, studies of Magel2-null mice are reasonably predictive of effects of compounds of Formulas I, II, III and IV in human beings with Prader-Willi Syndrome.
(§3) Testing was performed during the light phase of the circadian cycle, with the order of testing being determined by the principle of conducting the most stressful tests last. Assays were designed to reproduce and expand on the original behavioral characterization of Magel2-null mice. Magel2-null and wild-type control mice were dosed once daily for 6 weeks prior to testing and tested 30 minutes following a dose of cG-2-AllylP (NNZ2591). Study groups and the treatment matrix are described in Table 2 below.
The Elevated Plus Maze test is used to assess anxiety related behaviors. Normal mice show a preference for being in closed arms over open arms.

Magel2-null mice [2] = assay: Open Field hypoactivity (distance travelled, time spent active); type: in vivo, mouse; design: key: **** = p < 0.0001; ns = not significant
Excerpt: as §1, §2, §3
To evaluate whether cG-2-AllylP is effective to treat the hypoactivity in PWS, Open Field studies were carried out.
The relative distance travelled or time spent active is shown on the vertical axis, and the mean of each treatment group is shown on the horizontal axis. Wild-type (WT) mice treated with vehicle alone (left column) were considered to travel 100% or to have 100% activity.

Magel2-null mice [3] = assay: Nest building quality; type: in vivo, mouse; design: key: **** = p < 0.0001; ns = not significant
Excerpt: as §1, §2, §3
For small rodents, nests are important in heat conservation as well as reproduction and shelter. Nest building is an activity needed for mice to raise their offspring and is an indicator of social adaptation and activities of daily living. Typically, changes in nesting behaviors, such as failure to create a nest, indicate a change in health or welfare. Nesting behavior is sensitive to many genetic mutations underlying pathological disease states.
Nesting behavior is impaired in Magel2-null mice. Therefore, to determine if cG-2-AllylP might restore the quality of nest building, a series of studies were carried out.

Magel2-null mice [4] = assay: Circulating IGF-1 level in Magel2-null mice; type: in vivo, mouse; design: key: **** = p < 0.0001; ns = not significant
Procedure: as §2, §3
Prader-Willi Syndrome may be associated with altered IGF-1 levels in humans.

Magel2-null mice [5] = assay: Sniffing test of social interaction; type: in vivo, mouse; design: key: **** = p < 0.0001; ns = not significant
Excerpt: as §1, §2, §3
(§4) People with Prader-Willi Syndrome show deficits in social behavior compared with people without Prader-Willi Syndrome. Two tests were carried out to assess the social behavior deficits of Magel2-null mice.
The sniffing test of social interaction measures the number of sniffing events.

Magel2-null mice [6] = assay: Partition test of social preference; type: in vivo, mouse; design: key: **** = p < 0.0001; ns = not significant
Excerpt: as §1, §2, §3, §4
The partition test of social preference measures the preference shown for an object versus a familiar mouse.

[7] = Magel2-null + Vehicle vs. Magel2-null + NNZ2591 (100 mg/kg)
[8] = Magel2-null + Vehicle vs. Magel2-null + NNZ2591 (200 mg/kg)
[9] = WT + NNZ2591 (100 mg/kg) vs. Magel2-null + NNZ2591 (100 mg/kg)
[10] = WT + NNZ2591 (200 mg/kg) vs. Magel2-null + NNZ2591 (200 mg/kg)
[11] = WT + Vehicle vs. WT + NNZ2591 (200 mg/kg)
[12] = Magel2-null + NNZ2591 (100 mg/kg) vs. Magel2-null + NNZ2591 (200 mg/kg)
[13] = WT + NNZ2591 (100 mg/kg) vs. Magel2-null + NNZ2591 (200 mg/kg)
[14] = WT + Vehicle vs. WT + NNZ2591 (100 mg/kg)

C=CCC12CCCN1C(=O)CNC2=O [cG-2-AllylP, (8aS)-Allyl-hexahydropyrrolo[1,2-a]pyrazine-1,4-dione]
106 to 109 °C: melting point
**** (**** = p < 0.0001): Elevated plus maze (time in open arm), Sidak's multiple comparisons test, Summary (Magel2-null mice [1]; [7]) | Elevated plus maze (time in open arm), Sidak's multiple comparisons test, Summary (Magel2-null mice [1]; [8]) | Open Field (Hypoactivity) - Distance travelled, Sidak's multiple comparison test, Summary (Magel2-null mice [2]; [7]) | Open Field (Hypoactivity) - Distance travelled, Sidak's multiple comparison test, Summary (Magel2-null mice [2]; [8]) | Open Field (Hypoactivity) - Motility, Sidak's multiple comparisons test, Summary (Magel2-null mice [2]; [8]) | Open Field (Hypoactivity) - Motility, Sidak's multiple comparisons test, Summary (Magel2-null mice [2]; Magel2-null + Vehicle vs. WT + NNZ2591 (100 mg/kg)) | IGF-1 level, Sidak's multiple comparisons test, Summary (Magel2-null mice [4]; [7]) | Social interaction, Sidak's multiple comparisons test, Summary (Magel2-null mice [5]; [7]) | Social interaction, Sidak's multiple comparisons test, Summary (Magel2-null mice [5]; [8]) | Social preference, Sidak's multiple comparisons test, Summary (Magel2-null mice [6]; [7]) | Social preference, Sidak's multiple comparisons test, Summary (Magel2-null mice [6]; [8])
ns: Elevated plus maze (time in open arm), Sidak's multiple comparisons test, Summary (Magel2-null mice [1]; [9]) | Elevated plus maze (time in open arm), Sidak's multiple comparisons test, Summary (Magel2-null mice [1]; [10]) | Elevated plus maze (time in open arm), Sidak's multiple comparisons test, Summary (Magel2-null mice [1]; WT + Vehicle vs WT + NNZ2591 (100 mg/kg)) | Elevated plus maze (time in open arm), Sidak's multiple comparisons test, Summary (Magel2-null mice [1]; [11]) | Open Field (Hypoactivity) - Motility, Sidak's multiple comparisons test, Summary (Magel2-null mice [2]; [12]) | Open Field (Hypoactivity) - Distance travelled, Sidak's multiple comparison test, Summary (Magel2-null mice [2]; [9]) | Open Field (Hypoactivity) - Motility, Sidak's multiple comparisons test, Summary (Magel2-null mice [2]; [9]) | Open Field (Hypoactivity) - Distance travelled, Sidak's multiple comparison test, Summary (Magel2-null mice [2]; [13]) | Open Field (Hypoactivity) - Distance travelled, Sidak's multiple comparison test, Summary (Magel2-null mice [2]; [10]) | Open Field (Hypoactivity) - Motility, Sidak's multiple comparisons test, Summary (Magel2-null mice [2]; [10]) | Open Field (Hypoactivity) - Distance travelled, Sidak's multiple comparison test, Summary (Magel2-null mice [2]; [14]) | Open Field (Hypoactivity) - Motility, Sidak's multiple comparisons test, Summary (Magel2-null mice [2]; [14]) | Open Field (Hypoactivity) - Distance travelled, Sidak's multiple comparison test, Summary (Magel2-null mice [2]; [11]) | Open Field (Hypoactivity) - Motility, Sidak's multiple comparisons test, Summary (Magel2-null mice [2]; [11]) | Nesting, Sidak's multiple comparisons test, Summary (Magel2-null mice [3]; [12]) | Nesting, Sidak's multiple comparisons test, Summary (Magel2-null mice [3]; [9]) | Nesting, Sidak's multiple comparisons test, Summary (Magel2-null mice [3]; [10]) | Nesting, Sidak's multiple comparisons test, Summary (Magel2-null mice [3]; [14]) | Nesting, Sidak's multiple comparisons test, Summary (Magel2-null mice [3]; [11]) | IGF-1 level, Sidak's multiple comparisons test, Summary (Magel2-null mice [4]; [10]) | IGF-1 level, Sidak's multiple comparisons test, Summary (Magel2-null mice [4]; [14]) | IGF-1 level, Sidak's multiple comparisons test, Summary (Magel2-null mice [4]; [11]) | Social interaction, Sidak's multiple comparisons test, Summary (Magel2-null mice [5]; [12]) | Social interaction, Sidak's multiple comparisons test, Summary (Magel2-null mice [5]; [9]) | Social interaction, Sidak's multiple comparisons test, Summary (Magel2-null mice [5]; [10]) | Social interaction, Sidak's multiple comparisons test, Summary (Magel2-null mice [5]; WT + Vehicle v. WT + NNZ2591 (100 mg/kg)) | Social interaction, Sidak's multiple comparisons test, Summary (Magel2-null mice [5]; [11]) | Social preference, Sidak's multiple comparisons test, Summary (Magel2-null mice [6]; [9]) | Social preference, Sidak's multiple comparisons test, Summary (Magel2-null mice [6]; [13]) | Social preference, Sidak's multiple comparisons test, Summary (Magel2-null mice [6]; [10]) | Social preference, Sidak's multiple comparisons test, Summary (Magel2-null mice [6]; [14]) | Social preference, Sidak's multiple comparisons test, Summary (Magel2-null mice [6]; [11])
**** (**** = p < 0.00001.): Nesting, Sidak's multiple comparisons test, Summary (Magel2-null mice [3]; [7]) | Nesting, Sidak's multiple comparisons test, Summary (Magel2-null mice [3]; [8])
